Test results published in US20230381176A1, “A PHARMACEUTICAL COMPOSITION AND USE THEREOF FOR TREATMENT OF CANCER” (Ascentage Pharma (Suzhou) Co., Ltd., priority 2020, published 2023).

Columns and labels:
[1] = system: ovarian PDX OV1658; assay: Ovarian PDX model OV1658, Compound 5 and carboplatin and/or paclitaxel; type: in vivo, mouse
Method: (§1) A subcutaneous xenograft tumor model of human tumor immunodeficient mice was established by cell inoculation: tumor cells in logarithmic growth phase were collected, counted, resuspended in 1×PBS, and the cell suspension concentration was adjusted to 2.5-5 ×10^7/mL. The tumor cells were inoculated subcutaneously in the right side of immunodeficient mice with a 1 mL syringe ([…]), 5-10×10^6/0.2 mL/mouse. All animal experiments were strictly in accordance with the specifications for the use and management of experimental animals in GenePharma Co., Ltd. and Suzhou Ascentage Pharma Co., Ltd. The calculation of relevant parameters refers to the Chinese NMPA “Guidelines for Non-Clinical Research Techniques of Cytotoxic Anti-tumor Drugs”.
(§2) Animal body weight and tumor size were measured twice weekly during the experiment. The state of the animal and the presence or absence of death were observed every day. The growth of tumor and the effects of treatment on normal behavior of animals were monitored routinely, specifically involving experimental animal activity, feeding and drinking, weight gain or loss, eyes, clothing hair and other abnormalities. The deaths and clinical symptoms observed during the experiment were recorded in the raw data. All operations for administration and measurement of mouse body weight and tumor volume were performed in a clean bench. According to the requirements of the experimental protocol, after the end of the last administration, plasma and tumor tissues were collected, weighed and photographed. The plasma and tumor samples were frozen at −80° C. for ready-to-use.
(§3) Tumor volume (TV) is calculated as: TV=a×b^2/2, wherein a and b represent the length and width of the tumor to be measured, respectively.
(§4) The relative tumor volume (RTV) is calculated as: RTV=Vt/V1, wherein V1 is the tumor volume at the start of grouping and administration, and Vt is the tumor volume measured on the t day after administration.
(§5) Change of body weight (%)=(measured body weight−body weight at the start of grouping)/body weight at the start of grouping×100%.
(§6) A dose of drug is considered to be severely toxic if the body weight of mouse is reduced by more than 20% or the number of drug-related deaths exceeds 20%.
(§7) According to the description by Clarke R., Issues in experimental design and endpoint analysis in the study of experimental cytotoxic agents in vivo in breast cancer and other models [J]. Breast Cancer Research & Treatment, 1997, 46(2-3): 255-278, synergy analysis was evaluated using the following formula: synergy factor=((A/C)×(B/C))/(AB/C); A=RTV value of drug A alone group; B=RTV value of drug B alone group; C=RTV value of the solvent control group, and AB=RTV value of the A and B combination group.
(§8) Use of mRECIST (Gao et al., 2015) measured tumor responses included stable disease (SD), partial tumor regression (PR), and complete regression (CR), determined by comparing tumor volume change at day t to its baseline: tumor volume change (%)=(Vt−V1)/V1. The BestResponse was the minimum value of tumor volume change (%) for t≥10. For each time t, the average of tumor volume changes from t=1 to t was also calculated. BestAvgResponse was defined as the minimum value of this average for t≥10. The criteria for response (mRECIST) were adapted from RECIST criteria (Gao et al., 2015; Therasse et al., 2000) and defined as follows: mCR, BestResponse<−95% and BestAvg Response<−40%; mPR, BestResponse<−50% and BestAvgResponse<−20%; mSD, BestResponse<35% and BestAvgResponse<30%; mPD, not otherwise categorized. SD, PR, and CR were considered responders and used to calculate response rate (%). […] Body weight of animals were monitored simultaneously. The change in body weight was calculated based on the animal weight of the first day of dosing (day 1). Tumor volume and changes in body weight (%) were represented as the mean±standard error of the mean (SEM).

[2] = system: NCI-H2228 tumor cells; assay: Cell viability WST (CCK-8) assay, combination of Compound 5 and Compound 34; type: cell-based; conditions: Homo sapiens, 72 hours, single agent, read-out: Compound A IC50
Method: Cell plating: Anti-proliferative effects were detected by a CCK-8 (Cell Counting Kit-8, Shanghai life iLab, China) assay based on water soluble tetrazolium salt (WST). The cells were seeded in 96-well plates, and only 95 μL of complete medium was added to each negative control group. 95 μL of complete medium cell suspension was added to each well to be tested, and the cell density was (5-10)×10^4/hole. Dosing (protection from light): […] After 72 hours of action by using 6 different concentrations of Compound 34 with 3 fixed doses of Compound 5, the combination effect of Compound 5 an Compound 34 was tested. Reading: […] The plates were continuously incubated at 37 ° C. for 2-4 hours in a CO2 incubator. The OD values were measured using a microplate reader (SpectraMax Plus 384, Molecular Devices, LLC., US) under A450 nm. […] (O.D. of test well−O.D. of blank control well)/(O.D. of cell control well−O.D. of blank control well)×100%. IC50 values were calculated using Graphpad Prism 6.0 software for nonlinear regression data analysis method.

[3] = system: OVCAR3 s.c. ovarian xenograft; type: in vivo
Method: as §1, §2, §3, §4, §5, §6, §7, §8

[4] = Compound 5 50 mg/kg orally once per day, carboplatin 30 mg/kg i.p. once a week, paclitaxel 10 mg/kg i.v. once a week, 19 days
[5] = Compound 5 100 mg/kg orally once per day, paclitaxel 10 mg/kg i.v. once a week, carboplatin 30 mg/kg i.v. once a week

## Cc1cc(Nc2ncc(Cl)c(Nc3ccccc3S(=O)(=O)C(C)C)n2)c(OC(C)C)cc1C1=CCN(C2CCOCC2)CC1 [Compound 5, 5-chloro-N^2-(2-isopropoxy-5-methyl-4-(1-(tetrahydro-2H-pyran-4-yl)-1,2,3,6-tetrahydropyridin-4-yl)phenyl)-N^4-(2-(isopropylsulfonyl)phenyl)pyrimidine-2,4-diamine]
[1]; [4]
  RTV on Day 19 after administration (mean ± standard error): 14.57 ± 0.47
  T/C on Day 19 after administration (%): 106.67%
[1]; Day 19, animals per class
  mRECIST on Day 19 after administration: 2/2 PD
[1]; best response, animals per class
  mRECIST: 2/2 PD
[2]
  IC50: 0.906 µM
[3]; [5]
  RTV on Day 35 after administration (mean ± standard error): 13.66 ± 2.88
  T/C on Day 35 after administration (%): 85.04%
[3]; animals per class
  mRECIST: 5/5 PD
[3]; mouse, in vivo
  antitumor activity (conclusion in words): minor antitumor activity
[3]; proportion of animals with CR or PR
  Overall regression rate (ORR), %: 0%
[3]; proportion of animals with CR, PR or SD
  Disease control rate (DCR), %: 0%
